Data published in PubChem BioAssay (NCI).
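Cultured in 96-well plates, cells were exposed to test compound for 48 hours across five concentrations. At the GI50, growth is halved. The concentration for full growth arrest is given as TGI.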

Tests used:
Experiment in all cases: DTP human tumour cell line panel, 48 h; in the data active = GI50 below about 0.43 µM; inactive = the rest
786-0 renal = test system: 786-0 renal
A498 renal = test system: A498 renal
A549 NSCLC = test system: A549 NSCLC
ACHN renal = test system: ACHN renal
CAKI-1 renal = test system: CAKI-1 renal
CCRF-CEM leukemia = test system: CCRF-CEM leukemia
COLO 205 colon = test system: COLO 205 colon
DLD-1 colon = test system: DLD-1 colon
DMS 114 small cell lung = test system: DMS 114 small cell lung
DMS 273 small cell lung = test system: DMS 273 small cell lung
DU-145 prostate = test system: DU-145 prostate
EKVX NSCLC = test system: EKVX NSCLC
HCC-2998 colon = test system: HCC-2998 colon
HCT-116 colon = test system: HCT-116 colon
HCT-15 colon = test system: HCT-15 colon
HL-60(TB) leukemia = test system: HL-60(TB) leukemia
HOP-18 NSCLC = test system: HOP-18 NSCLC
HOP-62 NSCLC = test system: HOP-62 NSCLC
HOP-92 NSCLC = test system: HOP-92 NSCLC
HS 578T breast = test system: HS 578T breast
HT29 colon = test system: HT29 colon
IGROV1 ovarian = test system: IGROV1 ovarian
K-562 leukemia = test system: K-562 leukemia
KM12 colon = test system: KM12 colon
KM20L2 colon = test system: KM20L2 colon
LOX IMVI melanoma = test system: LOX IMVI melanoma
LXFL 529 NSCLC = test system: LXFL 529 NSCLC
M14 melanoma = test system: M14 melanoma
M19-MEL melanoma = test system: M19-MEL melanoma
MALME-3M melanoma = test system: MALME-3M melanoma
MCF7 breast = test system: MCF7 breast
MDA-MB-231 breast = test system: MDA-MB-231 breast
MDA-MB-435 = test system: MDA-MB-435
MOLT-4 leukemia = test system: MOLT-4 leukemia
NCI-H226 lung = test system: NCI-H226 lung
NCI-H23 lung = test system: NCI-H23 lung
NCI-H460 lung = test system: NCI-H460 lung
NCI/ADR-RES ovarian = test system: NCI/ADR-RES ovarian
OVCAR-3 ovarian = test system: OVCAR-3 ovarian
OVCAR-4 ovarian = test system: OVCAR-4 ovarian
OVCAR-5 ovarian = test system: OVCAR-5 ovarian
OVCAR-8 ovarian = test system: OVCAR-8 ovarian
PC-3 prostate = test system: PC-3 prostate
RPMI-8226 leukemia = test system: RPMI-8226 leukemia
RXF 393 renal = test system: RXF 393 renal
SF-268 CNS = test system: SF-268 CNS
SF-295 CNS = test system: SF-295 CNS
SF-539 CNS = test system: SF-539 CNS
SK-MEL-2 melanoma = test system: SK-MEL-2 melanoma
SK-MEL-28 melanoma = test system: SK-MEL-28 melanoma
SK-MEL-5 melanoma = test system: SK-MEL-5 melanoma
SK-OV-3 ovarian = test system: SK-OV-3 ovarian
SN12C renal = test system: SN12C renal
SNB-19 CNS = test system: SNB-19 CNS
SNB-75 CNS = test system: SNB-75 CNS
SNB-78 CNS = test system: SNB-78 CNS
SR leukemia = test system: SR leukemia
SW-620 colon = test system: SW-620 colon
T-47D breast = test system: T-47D breast
TK-10 renal = test system: TK-10 renal
U251 CNS = test system: U251 CNS
UACC-257 melanoma = test system: UACC-257 melanoma
UACC-62 melanoma = test system: UACC-62 melanoma
UO-31 renal = test system: UO-31 renal
XF 498 CNS = test system: XF 498 CNS
RXF-631 renal = test system: RXF-631 renal
NCI-H522 lung = test system: NCI-H522 lung

N#CC1C[C@@H]2CC3(CCC2CN1C(=O)c1ccccc1)OCCO3 (stereo partly drawn)
inactive: GI50 (CAKI-1 renal) > 100 µM | GI50 (DU-145 prostate) > 100 µM | GI50 (HS 578T breast) > 100 µM | GI50 (MCF7 breast) > 100 µM | GI50 (MDA-MB-231 breast) > 100 µM | GI50 (MDA-MB-435) > 100 µM | GI50 (NCI-H226 lung) > 100 µM | GI50 (NCI/ADR-RES ovarian) > 100 µM | GI50 (PC-3 prostate) > 100 µM | GI50 (T-47D breast) > 100 µM
> 100 µM: TGI (786-0 renal) | TGI (A498 renal) | TGI (A549 NSCLC) | TGI (ACHN renal) | TGI (CAKI-1 renal) | TGI (CCRF-CEM leukemia) | TGI (COLO 205 colon) | TGI (DLD-1 colon) | TGI (DMS 114 small cell lung) | TGI (DMS 273 small cell lung) | TGI (DU-145 prostate) | TGI (EKVX NSCLC) | TGI (HCC-2998 colon) | TGI (HCT-116 colon) | TGI (HCT-15 colon) | TGI (HL-60(TB) leukemia) | TGI (HOP-18 NSCLC) | TGI (HOP-62 NSCLC) | TGI (HOP-92 NSCLC) | TGI (HS 578T breast) | TGI (HT29 colon) | TGI (IGROV1 ovarian) | TGI (K-562 leukemia) | TGI (KM12 colon) | TGI (KM20L2 colon) | TGI (LOX IMVI melanoma) | TGI (LXFL 529 NSCLC) | TGI (M14 melanoma) | TGI (M19-MEL melanoma) | TGI (MALME-3M melanoma) | TGI (MCF7 breast) | TGI (MDA-MB-231 breast) | TGI (MDA-MB-435) | TGI (MOLT-4 leukemia) | TGI (NCI-H226 lung) | TGI (NCI-H23 lung) | TGI (NCI-H460 lung) | TGI (NCI/ADR-RES ovarian) | TGI (OVCAR-3 ovarian) | TGI (OVCAR-4 ovarian) | TGI (OVCAR-5 ovarian) | TGI (OVCAR-8 ovarian) | TGI (PC-3 prostate) | TGI (RPMI-8226 leukemia) | TGI (RXF 393 renal) | TGI (SF-268 CNS) | TGI (SF-295 CNS) | TGI (SF-539 CNS) | TGI (SK-MEL-28 melanoma) | TGI (SK-MEL-5 melanoma) | TGI (SK-OV-3 ovarian) | TGI (SN12C renal) | TGI (SNB-19 CNS) | TGI (SNB-75 CNS) | TGI (SNB-78 CNS) | TGI (SR leukemia) | TGI (SW-620 colon) | TGI (T-47D breast) | TGI (TK-10 renal) | TGI (U251 CNS) | TGI (UACC-257 melanoma) | TGI (UACC-62 melanoma) | TGI (UO-31 renal) | TGI (XF 498 CNS)
> 21.6 µM: TGI (SK-MEL-2 melanoma)

Cc1cc(=O)oc2cc(OCCCOc3ccc4c(C)cc(=O)oc4c3)ccc12
> 100 µM: TGI (786-0 renal) | TGI (A498 renal) | TGI (A549 NSCLC) | TGI (ACHN renal) | TGI (CCRF-CEM leukemia) | TGI (COLO 205 colon) | TGI (DLD-1 colon) | TGI (DMS 114 small cell lung) | TGI (DMS 273 small cell lung) | TGI (EKVX NSCLC) | TGI (HCC-2998 colon) | TGI (HCT-116 colon) | TGI (HCT-15 colon) | TGI (HL-60(TB) leukemia) | TGI (HOP-62 NSCLC) | TGI (HT29 colon) | TGI (IGROV1 ovarian) | TGI (K-562 leukemia) | TGI (KM20L2 colon) | TGI (LOX IMVI melanoma) | TGI (LXFL 529 NSCLC) | TGI (M14 melanoma) | TGI (M19-MEL melanoma) | TGI (MALME-3M melanoma) | TGI (MOLT-4 leukemia) | TGI (NCI-H226 lung) | TGI (NCI-H23 lung) | TGI (NCI-H460 lung) | TGI (OVCAR-3 ovarian) | TGI (OVCAR-4 ovarian) | TGI (OVCAR-8 ovarian) | TGI (RPMI-8226 leukemia) | TGI (RXF 393 renal) | TGI (RXF-631 renal) | TGI (SF-268 CNS) | TGI (SF-295 CNS) | TGI (SF-539 CNS) | TGI (SK-MEL-2 melanoma) | TGI (SK-MEL-28 melanoma) | TGI (SK-MEL-5 melanoma) | TGI (SN12C renal) | TGI (SNB-19 CNS) | TGI (SNB-75 CNS) | TGI (SR leukemia) | TGI (SW-620 colon) | TGI (TK-10 renal) | TGI (U251 CNS) | TGI (UACC-257 melanoma) | TGI (UACC-62 melanoma) | TGI (UO-31 renal) | TGI (XF 498 CNS)

COc1cc2c(cc1OC)C(C#N)N(C(=O)c1ccccc1)C=C2OC(=O)c1ccccc1 (stereo not drawn)
43.6 µM: TGI (ACHN renal)
90.5 µM: TGI (M19-MEL melanoma)
50.2 µM: TGI (IGROV1 ovarian) | TGI (MALME-3M melanoma)
35.2 µM: TGI (HOP-62 NSCLC)
40 µM: TGI (SNB-75 CNS)
51.4 µM: TGI (NCI-H226 lung)
45 µM: TGI (UACC-62 melanoma)
44.9 µM: TGI (SK-MEL-5 melanoma)
54.7 µM: TGI (SK-MEL-2 melanoma)
46.6 µM: TGI (HOP-18 NSCLC)
74.7 µM: TGI (U251 CNS)
77 µM: TGI (HOP-92 NSCLC)
50.5 µM: TGI (TK-10 renal)
89.2 µM: TGI (DMS 114 small cell lung)
39.2 µM: TGI (NCI-H522 lung)
76.6 µM: TGI (SNB-78 CNS)
86 µM: TGI (SF-268 CNS)
67.5 µM: TGI (SNB-19 CNS)
47.7 µM: TGI (XF 498 CNS)
45.4 µM: TGI (DMS 273 small cell lung) | TGI (SF-295 CNS)
71.9 µM: TGI (EKVX NSCLC)
39.3 µM: TGI (UO-31 renal)
34.7 µM: TGI (786-0 renal)
58.1 µM: TGI (SK-MEL-28 melanoma)
71.8 µM: TGI (OVCAR-8 ovarian)
42.5 µM: TGI (LXFL 529 NSCLC)
53 µM: TGI (UACC-257 melanoma)
> 100 µM: TGI (CCRF-CEM leukemia) | TGI (COLO 205 colon) | TGI (DLD-1 colon) | TGI (HCC-2998 colon) | TGI (HCT-15 colon) | TGI (HL-60(TB) leukemia) | TGI (HT29 colon) | TGI (K-562 leukemia) | TGI (KM12 colon) | TGI (KM20L2 colon) | TGI (LOX IMVI melanoma) | TGI (M14 melanoma) | TGI (MOLT-4 leukemia) | TGI (NCI-H23 lung) | TGI (NCI-H460 lung) | TGI (OVCAR-5 ovarian) | TGI (RPMI-8226 leukemia) | TGI (SK-OV-3 ovarian) | TGI (SN12C renal) | TGI (SR leukemia) | TGI (SW-620 colon)
47.4 µM: TGI (OVCAR-3 ovarian)
39 µM: TGI (SF-539 CNS)
